The source of these data is patent publication EP4781984A1 (Beyang Therapeutics Co., Ltd., priority 2023, dated 2025).

Data set [1] in a line: Effect of gellan gum on formulation viscosity and viscosity change after adding simulated tear fluid (Example 10). The class given is physicochemical. The note with it: compound 5 mg/mL, Gellan Gum 0.15% w/v; for Viscosity after Adding STF: simulated tear fluid added, volume ratio 3.6:1. The method, then:
Example 10: Effect of Gellan Gum on Formulation Viscosity and Viscosity Change after Adding Simulated Tear Fluid
This example investigates the effect of gellan gum on formulation viscosity and simulates the scenario of eye drop instillation by adding simulated tear fluid to the formulation at a volume ratio of 3.6:1. Table 23 Effect of Gellan Gum on Formulation Viscosity
The ophthalmic drop formulation in this example was prepared using the preparation method from Example 8 (i.e., one type of Formulation II of the present invention). Except for compound , the other components in the formulation are: 30% Hydroxypropyl-β-cyclodextrin solution (containing 2% polyoxyethylene castor oil EL): 50 mM Tris(hydroxymethyl)aminomethane-Hydrochloric Acid Buffer (containing 2% Poloxamer 188, 0.3% Gellan Gum Gelrite, w/v) = 50:50 v/v, adjusted to pH using Methanesulfonic Acid and Tris(hydroxymethyl)aminomethane.

A short description of data set [2]: Thermodynamic solubility test. The class given is physicochemical. The note with it: buffer solution, aqueous buffer, thermodynamic from solid; thermodynamic solubility, room temperature, 8 hours shaking; buffers pH 2.0, 6.5, 7.4 used, pH of the tabulated value not given. Summed up:
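Samples sonicated 10 min, shaken 8 h at room temperature, re-sonicated and centrifuged at 13000 rpm for 15 min. Supernatant recentrifuged and analysed by LC-MS, with concentrations quantified against a 3–5 point calibration curve.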

Data set [3] has as its system melanin. As to the kind of experiment: Compound binding to melanin. The class given is in vitro ADME. The note with it: cuttlefish (Sepia officinalis), melanin suspension (1 mg/mL), percentage of free drug (not bound to melanin), 2 µM compound, melanin 1 mg/mL in PBS pH 7.4, 37°C. The method in brief:
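Compound at 2 µM final incubated with 1 mg/mL Sepia melanin in PBS pH 7.4, 37°C, 2 hours with shaking; blank in PBS with 0.1% BSA. Supernatant concentration by LC-MS/MS. Fb = 100 − (Ctest/Ccontrol) × 100%.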

Data set [4] is described as follows: Ophthalmic formulations based on in situ salt formation technology: composition and state (Example 8). The class given is physicochemical. The note with it: for State Description: pH ~7; for State Description: pH / State Description: state: Table 17: 5 mg/mL, HP-β-CD 15, Poloxamer 188 1, Gelrite 0.15, Tris-HCl (pH 6.8) 25mM. The source says: In the following ophthalmic formulation preparation examples, "solution" refers to a clear, transparent liquid without visible insoluble matter. "Near-clear solution" refers to a liquid that appears close to a solution upon visual observation but may contain a small amount of insoluble particles or have a slightly opaque color. "Suspension" refers to a liquid that is visibly turbid or opaque. "Gel" refers to a completely or partially gel-like solid.
Example 8: Ophthalmic Formulation Based on In Situ Salt Formation Technology
Therefore, by preparing ophthalmic formulation compositions based on in situ salt formation technology, the solubility of the compounds can be further improved.
According to the formulation composition shown in the table below, weigh the compound powder, add 50% of the total volume (v/v) of a 30% (w/v) aqueous solution of hydroxypropyl-β-cyclodextrin (containing surfactant), and disperse by sonication; next, add an appropriate volume of pH regulator and sonicate until clear; then, add an equal volume of buffer containing solubilizer, viscosity modifier, etc., for dilution, and immediately vortex to mix; finally, add an appropriate volume of alkali regulator to adjust the solution pH to approximately 7, to prepare an eye drop formulation.
Using the in situ salt formation method, the compound is first dispersed in a solution containing Hydroxypropyl-β-cyclodextrin, then different acids are added to adjust the pH to 3-5, allowing the compound to fully or nearly fully dissolve, followed by adding the remaining components and adjusting the pH to approximately 7. […] Based on the visual dissolution effect after acid addition, methanesulfonic acid, acetic acid, and lactic acid were preliminarily selected as pH regulators. The preliminarily selected acids were used in subsequent tests with higher compound concentrations. Table 18 Formulation Composition and State

The mark [5] stands for this setting: 0.05M Fumaric Acid 10, 0.5M Tris 0.5.
Where [6] appears, read: 1M Acetic Acid 1, 0.5M Tris 0.5.
[7] abbreviates: 1M Lactic Acid 1, 0.5M Tris 0.5.
[8] abbreviates: 1M Maleic Acid 1, 0.5M Tris 1.5.
The mark [9] stands for this setting: 1M Methanesulfonic Acid 1, 0.5M Tris 0.5.
[10] abbreviates: 1M Tartaric Acid 1, 0.5M Tris 1.

The structures appear in SMILES notation. ≈ marks a conversion by molar mass, not a printed value.

Regarding `O=C(NC1CC1)c1cccc(F)c1Sc1ccc2c(/C=C/c3cnn(CCCN4CCCC4)c3)n[nH]c2c1` [Compound I-44, N-cyclopropyl-3-fluoro-2-({3-[(E)-2-{1-[3-(pyrrolidin-1-yl)propyl]-1H-pyrazol-4-yl}ethenyl]-1H-indazol-6-yl}sulfanyl)benzamide], the figures for the “Formulation Viscosity” value in data set [1] (Test temperature 25 °C) and in data set [1] (Test temperature 37 °C) were 23.27 mPa.s and 9.53 mPa.s, respectively. Moreover, the “Viscosity after Adding STF” value in data set [1] (Test temperature 25 °C) was 27.26 mPa.s; in data set [1] (Test temperature 37 °C), 24.06 mPa.s. Moreover, the concentration in solution in data set [2] (solubility at 8 h) came to 564 µg/mL (≈ 1060 µM). The molecule also showed a fraction unbound at 2 h, 2 µM in data set [3] of 0.01 to 0.05. In addition, the “State Description” value in data set [4] (Table 21, Compound 10 mg/ml, 1M Methanesulfonic Acid 1%, Polyoxyethylene castor oil EL 1%, no 0.5M Tris) is recorded as “near-clear solution”; in data set [4] (Table 21, Compound 20 mg/ml, 1M Methanesulfonic Acid 4%, Polyoxyethylene castor oil EL 1%, 0.5M Tris 1%), “near-clear solution”.
`CCNC(=O)c1cc(F)ccc1Sc1ccc2c(/C=C/c3ccc(CN4CCCC4)cn3)n[nH]c2c1` [Compound I-97, N-ethyl-5-fluoro-2-({3-[(E)-2-{5-[(pyrrolidin-1-yl)methyl]pyridin-2-yl}ethenyl]-1H-indazol-6-yl}sulfanyl)benzamide]: the “Formulation Viscosity” value in data set [1] (Test temperature 25 °C) was 19.01 mPa.s; in data set [1] (Test temperature 37 °C), 7.97 mPa.s. Moreover, the figures for the “Viscosity after Adding STF” value in data set [1] (Test temperature 25 °C) and in data set [1] (Test temperature 37 °C) were 24.19 mPa.s and 21.95 mPa.s, respectively. In addition, the solubility at 8 h in data set [2] was determined as 319 µg/mL (≈ 635 µM). The free fraction (fraction unbound) at 2 h, 2 µM in data set [3] lay in the range of 0.01 to 0.05. The “State Description” value is recorded as “pH ~7, near-clear solution, with opalescence” in data set [4] (Compound 10 mg/ml, 1M Acetic Acid 2%, no Polyoxyethylene castor oil EL, 0.5M Tris 1%); “pH ~7, near-clear solution, with opalescence” in data set [4] (Compound 10 mg/ml, 1M Lactic Acid 2%, no Polyoxyethylene castor oil EL, 0.5M Tris 1%); “pH ~7, near-clear solution, with opalescence” in data set [4] (Compound 10mg/ml, 1M Methanesulfonic Acid 2%, no Polyoxyethylene castor oil EL, 0.5M Tris 1%); “pH ~7, near-clear solution, with opalescence” in data set [4] (Compound 15 mg/ml, 1M Methanesulfonic Acid 3%, no Polyoxyethylene castor oil EL, 0.5M Tris 1%); “solution” in data set [4] (Compound 20 mg/ml, 1M Methanesulfonic Acid 4%, Polyoxyethylene castor oil EL 1%, 0.5M Tris 1%); “pH ~7, near-clear solution, with opalescence” in data set [4] (Compound 20 mg/ml, 1M Methanesulfonic Acid 4%, no Polyoxyethylene castor oil EL, 0.5M Tris 0.5%). Further, the “State Description: pH” value in data set [4] (setting [5]), in data set [4] (setting [6]), in data set [4] (setting [7]), in data set [4] (setting [8]), in data set [4] (setting [9]) and in data set [4] (setting [10]) was about 7 each time. In addition, the “State Description: state” value in data set [4] (setting [5]) is on record as “suspension”; in data set [4] (setting [6]) it was “near-clear solution”; in data set [4] (setting [7]) it was “near-clear solution”; in data set [4] (setting [8]) it was “near-clear solution”; in data set [4] (setting [9]), “near-clear solution”; in data set [4] (setting [10]), “near-clear solution”.

By solubility is commonly meant how much of the substance goes into solution per volume. Low readings indicate a poorly soluble substance, high ones a readily soluble substance. The term fraction unbound denotes free concentration divided by total concentration. Low values mean extensive binding, high ones weak binding.
